{"source": "patent US20230293458A1", "about": "“MULTIBIOTIC AGENTS AND METHODS OF USING THE SAME” (Flagship Pioneering Innovations V, Inc., priority 2017, published 2023)", "key": {"[1]": {"experiment": "Stability of multibiotic agents in Simulated Gastric Fluid (SGF)", "assay_type": "in vitro ADME", "settings": "simulated gastric fluid pH 1.6 with pepsin, 37° C., 1 μM", "experimental": "Assay 3. Stability of multibiotic agents in Simulated Gastric Fluid (SGF). This assay can be used to assess the stability of a multibiotic agent in a stomach.\nMedium was prepared by dissolving 2 g of sodium chloride in 0.6 L in ultrapure water (MilliQ®, Millipore Sigma, Darmstadt, Germany). The pH was adjusted to 1.6 with 1 N hydrochloric acid, and the volume was then adjusted to 1 L with purified water.\n60 mg FaSSIF powder (Biorelevant™, London, UK) were dissolved in 500 mL buffer (above). Pepsin was added (0.1 mg/mL) (Millipore Sigma, Darmstadt, Germany), and the solution was stirred. The resulting SGF media were used fresh for each experiment.\nTest compounds were dissolved in DMSO stock to 1 mM. An aliquot of the DMSO stock solution was removed and diluted in the SGF Media in 15 mL falcon tubes to generate a total compound concentration of 1 μM. A 1 mL aliquot was immediately removed and diluted once with 1 volume of acetonitrile for T0 timepoint. The mixture was sealed and mixed at 37° C. in an incubator. Aliquots (1 mL) were removed at regular intervals and immediately quenched by the addition of 1 volume of acetonitrile. The resulting samples were analyzed by LC/MS to determine degradation rates in SGF."}, "[2]": {"experiment": "Stability of multibiotic agents in Simulated Intestinal Fluid (SIF)", "assay_type": "in vitro ADME", "settings": "simulated intestinal fluid pH 6.7 with pancreatin, 37° C., 1 μM", "experimental": "Assay 2. Stability of multibiotic agents in Simulated Intestinal Fluid (SIF). This assay can be used to assess the stability of a multibiotic agent in a small intestine. Phosphate buffer was prepared by dissolving 0.42 g of sodium hydroxide pellets and 3.95 g of monobasic sodium phosphate monohydrate and 6.19 g of sodium chloride in ultrapure water (MilliQ®, Millipore Sigma, Darmstadt, Germany). The pH was adjusted to 6.7 using aq. HCl and aq. NaOH, as necessary, and the solution was diluted with ultrapure water to produce 1 L of the pH 6.7 buffer. 112 mg FaSSIF powder (Biorelevant™, London, UK) was dissolved in 50 mL of the pH 6.7 buffer. 2 to 3 mL of the resulting solution were then added to 500 mg pancreatin (Millipore Sigma, Darmstadt, Germany). The resulting mixture was agitated by finger tapping the vessel containing the mixture until milky suspension formed. At this time, the remainder of the 50 mL FaSSiF/pH 6.7 buffer solution was added. The resulting suspension was flipped upside down 10 times to produce SIF, which was used fresh. Test compounds are dissolved in DMSO stock to 1 mM. An aliquot of the DMSO stock solution is removed and diluted in the SIF media in 15 mL falcon tubes to produce a mixture with a tested compound concentration of 1 μM. A 1 mL aliquot is immediately removed and diluted once with 1 volume of acetonitrile for T0 timepoint. The mixture is sealed and agitated at 37° C. in an incubator. Aliquots (1 mL) are removed at regular intervals and immediately quenched by the addition of 1 volume of acetonitrile. The resulting samples are analyzed by LC/MS to determine degradation rates."}}}
{"smiles": "CCC(=O)O[C@@H]1[C@@H](OC(=O)CC)[C@H](OC(=O)CC)CO[C@H]1O", "note": "[Example 166, [(3R,4S,5R,6R)-6-hydroxy-4,5-di(propanoyloxy)tetrahydropyran-3-yl] propanoate]", "values": [{"measurement": "Assay 2 (SGF) (% Remaining @ 4 hours)", "setting": "[1]", "value": "C (>75% of the tested compound remaining)"}, {"measurement": "Assay 3 (SIF) (% @ Remaining 4 hours)", "setting": "[2]", "value": "B (25-75% of the tested compound remaining)"}]}
{"smiles": "CC(=O)OCC1(OC(C)=O)OC[C@@H](OC(C)=O)[C@H](OC(C)=O)[C@@H]1OC(C)=O", "note": "(stereo partly drawn) [Example 162, [(3S,4S,5R)-2,3,4,5-tetraacetoxytetrahydropyran-2-yl]methyl acetate]", "values": [{"measurement": "Assay 2 (SGF) (% Remaining @ 4 hours)", "setting": "[1]", "value": "C (>75% of the tested compound remaining)"}, {"measurement": "Assay 3 (SIF) (% @ Remaining 4 hours)", "setting": "[2]", "value": "B (25-75% of the tested compound remaining)"}]}
{"smiles": "CC(=O)OC1OC[C@H](OC(C)=O)[C@H](OC(C)=O)[C@H]1OC(C)=O", "note": "(stereo partly drawn) [Example 138, [(3S,4S,5R)-4,5,6-triacetoxytetrahydropyran-3-yl] acetate]", "values": [{"measurement": "Assay 2 (SGF) (% Remaining @ 4 hours)", "setting": "[1]", "value": "C (>75% of the tested compound remaining)"}, {"measurement": "Assay 3 (SIF) (% @ Remaining 4 hours)", "setting": "[2]", "value": "C (>75% of the tested compound remaining)"}]}
{"smiles": "CC(=O)OCC(C)(C)[C@@H](OC(C)=O)C(=O)NCCC(N)=O", "note": "[Example 94, [(3R)-3-acetoxy-4-[(3-amino-3-oxo-propyl)amino]-2,2-dimethyl-4-oxo-butyl] acetate]", "values": [{"measurement": "Assay 2 (SGF) (% Remaining @ 4 hours)", "setting": "[1]", "value": "C (>75% of the tested compound remaining)"}, {"measurement": "Assay 3 (SIF) (% @ Remaining 4 hours)", "setting": "[2]", "value": "C (>75% of the tested compound remaining)"}]}
{"smiles": "O=C(CCc1c[nH]c2ccccc12)O[C@H]1[C@@H](OC(=O)CCc2c[nH]c3ccccc23)COC(O)[C@@H]1OC(=O)CCc1c[nH]c2ccccc12", "note": "(stereo partly drawn) [Example 148, [(3S,4S,5R)-6-hydroxy-4,5-bis[3-(1H-indol-3-yl)propanoyloxy]tetrahydropyran-3-yl] 3-(1H-indol-3-yl)propanoate]", "values": [{"measurement": "Assay 2 (SGF) (% Remaining @ 4 hours)", "setting": "[1]", "value": "C (>75% of the tested compound remaining)"}, {"measurement": "Assay 3 (SIF) (% @ Remaining 4 hours)", "setting": "[2]", "value": "A (<25% of the tested compound remaining)"}]}
{"smiles": "C=C1CC[C@H](OC(=O)C2(C)OCC[C@@H](C)O2)C/C1=C/C=C1\\CCC[C@]2(C)[C@@H]([C@H](C)CCCC(C)C)CC[C@@H]12", "note": "(stereo partly drawn) [Example 187, [(1S,3Z)-3-[(2E)-2-[(1R,3aS,7aR)-1-[(1R)-1,5-dimethylhexyl]-7a-methyl-2,3,3a,5,6,7-hexahydro-1H-inden-4-ylidene]ethylidene]-4-methylene-cyclohexyl] (4R)-2,4-dimethyl-1,3-dioxane-2-carboxylate]", "values": [{"measurement": "Assay 2 (SGF) (% Remaining @ 4 hours)", "setting": "[1]", "value": "B (25-75% of the tested compound remaining)"}, {"measurement": "Assay 3 (SIF) (% @ Remaining 4 hours)", "setting": "[2]", "value": "C (>75% of the tested compound remaining)"}]}
{"smiles": "CCCC(=O)O[C@H](C)CC(=O)Oc1ccc(/C=C/c2cc(OC(=O)C[C@@H](C)OC(=O)CCC)cc(OC(=O)C[C@@H](C)OC(=O)CCC)c2)cc1", "note": "[Example 72, [4-[(E)-2-[3,5-bis[[(3R)-3-butanoyloxybutanoyl]oxy]phenyl]vinyl]phenyl] (3R)-3-butanoyloxy-butanoate]", "values": [{"measurement": "Assay 2 (SGF) (% Remaining @ 4 hours)", "setting": "[1]", "value": "C (>75% of the tested compound remaining)"}, {"measurement": "Assay 3 (SIF) (% @ Remaining 4 hours)", "setting": "[2]", "value": "B (25-75% of the tested compound remaining)"}]}
{"smiles": "CC(C)(COC(=O)Cc1c[nH]c2ccccc12)[C@@H](OC(=O)Cc1c[nH]c2ccccc12)C(=O)NCCCOC(=O)Cc1c[nH]c2ccccc12", "note": "[Example 92, 3-[[(2R)-2,4-bis[[2-(1H-indol-3-yl)acetyl]oxy]-3,3-dimethyl-butanoyl]amino]propyl 2-(1H-indol-3-yl)acetate]", "values": [{"measurement": "Assay 2 (SGF) (% Remaining @ 4 hours)", "setting": "[1]", "value": "C (>75% of the tested compound remaining)"}, {"measurement": "Assay 3 (SIF) (% @ Remaining 4 hours)", "setting": "[2]", "value": "C (>75% of the tested compound remaining)"}]}
{"smiles": "O=C(Cc1c[nH]c2ccccc12)OC[C@@H](OC(=O)Cc1c[nH]c2ccccc12)[C@H]1OC[C@H](OC(=O)Cc2c[nH]c3ccccc23)[C@H]1OC(=O)Cc1c[nH]c2ccccc12", "note": "[Example 106, [(2R)-2-[(2R,3R,4S)-3,4-bis[[2-(1H-indol-3-yl)acetyl]oxy]tetrahydrofuran-2-yl]-2-[2-(1H-indol-3-yl)acetyl]oxy-ethyl] 2-(1H-indol-3-yl)acetate]", "values": [{"measurement": "Assay 2 (SGF) (% Remaining @ 4 hours)", "setting": "[1]", "value": "C (>75% of the tested compound remaining)"}, {"measurement": "Assay 3 (SIF) (% @ Remaining 4 hours)", "setting": "[2]", "value": "C (>75% of the tested compound remaining)"}]}
{"smiles": "Cc1ncc(COC(=O)CCc2c[nH]c3ccccc23)c(COC(=O)CCc2c[nH]c3ccccc23)c1OC(=O)CCc1c[nH]c2ccccc12", "note": "[Example 103, [5-[3-(1H-indol-3-yl)propanoyloxy]-4-[3-(1H-indol-3-yl)propanoyloxymethyl]-6-methyl-3-pyridyl]methyl3-(1H-indol-3-yl)propanoate]", "values": [{"measurement": "Assay 2 (SGF) (% Remaining @ 4 hours)", "setting": "[1]", "value": "C (>75% of the tested compound remaining)"}, {"measurement": "Assay 3 (SIF) (% @ Remaining 4 hours)", "setting": "[2]", "value": "A (<25% of the tested compound remaining)"}]}
{"smiles": "CCCC(=O)O[C@H](C)CC(=O)OCCCNC(=O)[C@H](OC(=O)C[C@@H](C)OC(=O)CCC)C(C)(C)COC(=O)C[C@@H](C)OC(=O)CCC", "note": "[Example 91, 3-[[(2R)-2,4-bis[[(3R)-3-butanoyloxybutanoyl]oxy]-3,3-dimethyl-butanoyl]amino]propyl (3R)-3-butanoyloxybutanoate]", "values": [{"measurement": "Assay 2 (SGF) (% Remaining @ 4 hours)", "setting": "[1]", "value": "C (>75% of the tested compound remaining)"}, {"measurement": "Assay 3 (SIF) (% @ Remaining 4 hours)", "setting": "[2]", "value": "A (<25% of the tested compound remaining)"}]}
{"smiles": "COc1cc(/C=C/C(=O)CC(=O)/C=C/c2ccc(OC(=O)Cc3c[nH]c4ccccc34)c(OC)c2)ccc1OC(=O)Cc1c[nH]c2ccccc12", "note": "[Example 1, [4-[(1E,6E)-7-[4-[2-(1H-indol-3-yl)acetyl]oxy-3-methoxy-phenyl]-3,5-dioxo-hepta-1,6-dienyl]-2-methoxy-phenyl] 2-(1H-indol-3-yl)acetate]", "values": [{"measurement": "Assay 2 (SGF) (% Remaining @ 4 hours)", "setting": "[1]", "value": "C (>75% of the tested compound remaining)"}, {"measurement": "Assay 3 (SIF) (% @ Remaining 4 hours)", "setting": "[2]", "value": "C (>75% of the tested compound remaining)"}]}
{"smiles": "CCCC(=O)NCCCN(CCCCN(CCCNC(=O)CCC)C(=O)CCC)C(=O)CCC", "note": "[Example 128, N-[3-[butanoyl-[4-[butanoyl-[3-(butanoylamino)propyl]amino]butyl]amino]propyl]butanamide]", "values": [{"measurement": "Assay 2 (SGF) (% Remaining @ 4 hours)", "setting": "[1]", "value": "C (>75% of the tested compound remaining)"}, {"measurement": "Assay 3 (SIF) (% @ Remaining 4 hours)", "setting": "[2]", "value": "C (>75% of the tested compound remaining)"}]}
{"smiles": "O=C(/C=C/c1c[nH]c2ccccc12)O[C@H]1CO[C@H]2[C@@H]1OC[C@H]2OC(=O)/C=C/c1c[nH]c2ccccc12", "note": "[Example 123, [(3R,3aR,6S,6aR)-6-[(E)-3-(1H-indol-3-yl)prop-2-enoyl]oxy-2,3,3a,5,6,6a-hexahydrofuro[3,2-b]furan-3-yl] (E)-3-(1H-indol-3-yl)prop-2-enoate]", "values": [{"measurement": "Assay 2 (SGF) (% Remaining @ 4 hours)", "setting": "[1]", "value": "C (>75% of the tested compound remaining)"}, {"measurement": "Assay 3 (SIF) (% @ Remaining 4 hours)", "setting": "[2]", "value": "C (>75% of the tested compound remaining)"}]}
{"smiles": "CCCC(=O)OC[C@H](OC(=O)CCC)[C@@H](COC(=O)CCC)OC(=O)CCC", "note": "[Example 82, (2R,3S)-butane-1,2,3,4-tetrayl tetrabutyrate]", "values": [{"measurement": "Assay 2 (SGF) (% Remaining @ 4 hours)", "setting": "[1]", "value": "C (>75% of the tested compound remaining)"}, {"measurement": "Assay 3 (SIF) (% @ Remaining 4 hours)", "setting": "[2]", "value": "B (25-75% of the tested compound remaining)"}]}
{"smiles": "CCCC(=O)O[C@H](C)CC(=O)Oc1ccc(/C=C/C(=O)CC(=O)/C=C/c2ccc(OC(=O)C[C@@H](C)OC(=O)CCC)c(OC)c2)cc1OC", "note": "[Example 73, [4-[(1E,6E)-7-[4-[(3R)-3-butanoyloxybutanoyl]oxy-3-methoxy-phenyl]-3,5-dioxo-hepta-1,6-dienyl]-2-methoxy-phenyl] (3R)-3-butanoyloxybutanoate]", "values": [{"measurement": "Assay 2 (SGF) (% Remaining @ 4 hours)", "setting": "[1]", "value": "C (>75% of the tested compound remaining)"}, {"measurement": "Assay 3 (SIF) (% @ Remaining 4 hours)", "setting": "[2]", "value": "B (25-75% of the tested compound remaining)"}]}
{"smiles": "CCCC(=O)NCCCN(CCCNC(=O)CCC)C(=O)CCC", "note": "[Example 129, N-[3-[butanoyl-[3-(butanoylamino)propyl]amino]propyl]butanamide]", "values": [{"measurement": "Assay 2 (SGF) (% Remaining @ 4 hours)", "setting": "[1]", "value": "C (>75% of the tested compound remaining)"}, {"measurement": "Assay 3 (SIF) (% @ Remaining 4 hours)", "setting": "[2]", "value": "C (>75% of the tested compound remaining)"}]}
